Measured values published in US8476265B2, “Compounds-801” (AstraZeneca AB, priority 2010, dated 2013).

Columns and labels:
[1] = target: T1, human muscarinic acetylcholine M3 receptor (Homo sapiens, UniProt P20309); assay: Muscarinic 3 receptor binding assay ([3H]NMS competition, SPA), pIC50; conditions: [3H]NMS 0.1 nM, CHO-K1 cell membranes expressing human M3 receptor
T1 construct: expressed in transfected cells; host or cells: CHO-K1 (Chinese Hamster Ovary) cell membranes
Method: Muscarinic 3 Receptor Binding Assay
The affinity (pIC50) of compounds binding to the M3 receptor is determined by competition binding of [^3H]N-methyl scopolamine (NMS) to CHO-K1 (Chinese Hamster Ovary) cell membranes expressing the human muscarinic acetylcholine M3 receptor (M3-ACh) in a scintillation proximity assay (SPA) format.
SPA beads are precoated with membranes and then incubated at 2 mg of beads per well with serial dilutions of compounds of the invention, [^3H]NMS at 0.1 nM, quarter Kd (experimentally determined dissociation constant) and assay buffer (20 mM HEPES pH 7.4 containing 5 mM MgCl2 and 0.1% (w/v) bovine serum albumin). The assay is conducted in a final volume of 200 μL, in the presence of 1% (v/v) dimethyl sulphoxide (DMSO). Total binding of [^3H]NMS is determined in the absence of competing compound and non-specific binding of [^3H]NMS is determined in the presence of 1 μM atropine. The plates are incubated for 16 hours at room temperature and then read on Wallac Microbeta™ using a normalised ^3H protocol. The pIC50, defined as the negative logarithm of the molar concentration of compound required for 50% reduction in specific [^3H]-NMS binding, is determined.

[2] = target: T2, Adrenergic β2 (Homo sapiens, UniProt P07550); assay: Adrenergic β2 mediated cAMP production in H292 cells (AlphaScreen), concentration response; assay type: cell-based; conditions: for EC50: 60 min, 300 μM rolipram, read-out: β2 pEC50 (converted); for β2 Intrinsic Activity: fraction relative to the maximum activity determined for formoterol
T2 construct: Adherent H292 cells are removed from tissue culture flasks by treatment with Accutase™ cell detachment solution; endogenous in cells; host or cells: H292 cells
T2 sequence (P07550 whole entry): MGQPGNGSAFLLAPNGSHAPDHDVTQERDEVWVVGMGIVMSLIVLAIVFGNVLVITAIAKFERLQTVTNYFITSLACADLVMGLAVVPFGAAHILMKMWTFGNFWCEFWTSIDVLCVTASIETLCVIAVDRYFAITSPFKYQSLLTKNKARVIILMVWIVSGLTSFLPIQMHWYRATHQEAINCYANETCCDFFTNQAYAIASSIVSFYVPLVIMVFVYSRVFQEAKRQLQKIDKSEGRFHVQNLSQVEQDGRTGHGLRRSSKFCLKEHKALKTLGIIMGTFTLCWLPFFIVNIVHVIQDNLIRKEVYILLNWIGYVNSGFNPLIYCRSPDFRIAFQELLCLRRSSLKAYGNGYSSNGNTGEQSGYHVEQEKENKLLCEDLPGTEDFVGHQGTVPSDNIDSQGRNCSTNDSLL
Method: Assay for Adrenergic 132 Mediated cAMP Production
H292 cells are grown in 225 cm2 flasks incubator at 37° C., 5% CO2 in RPMI medium containing 10% (v/v) FBS (foetal bovine serum) and 2 mM L-glutamine.
Adherent H292 cells re removed from tissue culture flasks by treatment with Accutase™ cell detachment solution for 15 minutes. Flasks are incubated for 15 minutes in a humidified incubator at 37° C., 5% CO2. Detached cells are re-suspended in RPMI media (containing 10% (v/v) FBS and 2 mM L-glutamine) at 0.1×10^6 cells per mL. 10000 cells in 100 μl, are added to each well of a tissue-culture-treated 96-well plate and the cells incubated overnight in a humidified incubator at 37° C., 5% CO2. The culture media is removed and cells are washed twice with 100 μL assay buffer and replaced with 50 μl assay buffer (HBSS solution containing 10 mM HEPES pH7.4 and 5 mM glucose). Cells are rested at room temperature for 20 minutes after which time 25 μl of rolipram (1.2 mM made up in assay buffer containing 2.4% (v/v) dimethylsulphoxide) is added. Cells are incubated with rolipram for 10 minutes after which time test compounds are added and the cells are incubated for 60 minutes at room temperature. The final rolipram concentration in the assay is 300 μM and final vehicle concentration is 1% (v/v) dimethylsulphoxide. The reaction is stopped by removing supernatants, washing once with 100 μL assay buffer and replacing with 50 μL lysis buffer. The cell monolayer is frozen at −80° C. for 30 minutes (or overnight).
AlphaScreen™ cAMP detection
The concentration of cAMP (cyclic adenosine monophosphate) in the cell lysate is determined using AlphaScreen™ methodology. The frozen cell plate is thawed for 20 minutes on a plate shaker then 10 μL of the cell lysate is transferred to a 96-well white plate. 40 μL of mixed AlphaScreen™ detection beads pre-incubated with biotinylated cAMP, is added to each well and the plate incubated at room temperature for 3 hours in the dark. The AlphaScreen™ signal is measured using an EnVision spectrophotometer (Perkin-Elmer Inc.) with the recommended manufacturer's settings. cAMP concentrations are determined by reference to a calibration curve determined in the same experiment using standard cAMP concentrations. Concentration response curves for agonists are constructed and data is fitted to a four parameter logistic equation to determine both the pEC50 and Intrinsic Activity. Intrinsic Activity is expressed as a fraction relative to the maximum activity determined for formoterol in each experiment.

T1 sequence (P20309 whole entry): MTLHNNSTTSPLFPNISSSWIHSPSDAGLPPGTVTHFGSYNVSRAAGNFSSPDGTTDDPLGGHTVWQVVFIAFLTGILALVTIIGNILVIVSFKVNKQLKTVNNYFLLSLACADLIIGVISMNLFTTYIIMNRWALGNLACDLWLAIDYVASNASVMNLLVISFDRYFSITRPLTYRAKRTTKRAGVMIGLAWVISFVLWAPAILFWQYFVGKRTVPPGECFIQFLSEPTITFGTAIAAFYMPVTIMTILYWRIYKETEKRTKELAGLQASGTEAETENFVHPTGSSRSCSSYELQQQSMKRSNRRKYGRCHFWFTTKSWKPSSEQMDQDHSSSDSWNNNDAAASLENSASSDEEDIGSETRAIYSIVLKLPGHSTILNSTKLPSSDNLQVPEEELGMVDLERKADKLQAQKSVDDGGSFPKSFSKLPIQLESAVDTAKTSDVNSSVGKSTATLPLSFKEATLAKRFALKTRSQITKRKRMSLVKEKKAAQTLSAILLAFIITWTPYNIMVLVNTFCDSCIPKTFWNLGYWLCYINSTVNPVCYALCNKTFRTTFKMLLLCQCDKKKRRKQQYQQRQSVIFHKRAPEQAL

| SMILES | IC50 [1] [nM] | EC50 [2] [nM] | β2 Intrinsic Activity [2] |
| --- | --- | --- | --- |
| CC(C)c1nc(C(=O)N2CCOC3(CCN(Cc4cccc(CCOCCC(=O)N(CCNCCc5ccc(O)c6c5OCC(=O)N6)C5CCCCCC5)c4F)CC3)C2)cs1 [Example 7, N-Cycloheptyl-3-(2-fluoro-3-((4-(2-isopropylthiazole-4-carbonyl)-1-oxa-4,9-diazaspiro[5.5]undecan-9-yl)methyl)phenethoxy)-N-(2-(2-(5-hydroxy-3-oxo-3,4-dihydro-2H-benzo[b][1,4]oxazin-8-yl)ethylamino)ethyl)propanamide ditrifluoroacetate] | 0.631 | 39.8 | 1.0 |
| CC(C)c1nc(C(=O)N2CCOC3(CCN(Cc4cccc(CCOCCC(=O)N(CCNCCc5ccc(O)c6c5OCC(=O)N6)Cc5ccccc5)c4F)CC3)C2)cs1 [Example 8, N-Benzyl-3-(2-fluoro-3-((4-(2-isopropylthiazole-4-carbonyl)-1-oxa-4,9-diazaspiro[5.5]undecan-9-yl)methyl)phenethoxy)-N-(2-(2-(5-hydroxy-3-oxo-3,4-dihydro-2H-benzo[b][1,4]oxazin-8-yl)ethylamino)ethyl)propanamide ditrifluoroacetate] | 0.251 | 39.8 | 1.1 |
| CCC(CC)c1nc(C(=O)N2CCOC3(CCN(Cc4cccc(CCOCCC(=O)N(CC)CCNCCc5ccc(O)c6c5OCC(=O)N6)c4F)CC3)C2)cs1 [Example 9, N-Ethyl-3-(2-fluoro-3-((4-(2-(pentan-3-yl)thiazole-4-carbonyl)-1-oxa-4,9-diazaspiro[5.5]undecan-9-yl)methyl)phenethoxy)-N-(2-(2-(5-hydroxy-3-oxo-3,4-dihydro-2H-benzo[b][1,4]oxazin-8-yl)ethylamino)ethyl)propanamide ditrifluoroacetate] | 0.501 | 31.6 | 0.8 |
| CCN(CCNCCc1ccc(O)c2[nH]c(=O)sc12)C(=O)CCOCCc1cccc(CN2CCC3(CC2)CN(C(=O)c2csc(C(C)C)n2)CCO3)c1F [Example 10, N-Ethyl-3-(2-fluoro-3-((4-(2-isopropylthiazole-4-carbonyl)-1-oxa-4,9-diazaspiro[5.5]undecan-9-yl)methyl)phenethoxy)-N-(2-(2-(4-hydroxy-2-oxo-2,3-dihydrobenzo[d]thiazol-7-yl)ethylamino)ethyl)propanamide ditrifluoroacetate] | 0.631 | 31.6 | 0.8 |
| CC(C)c1nc(C(=O)N2CCOC3(CCN(Cc4cccc(CCOCCC(=O)N(CCNCCc5ccc(O)c6[nH]c(=O)sc56)C5CCOCC5)c4F)CC3)C2)cs1 [Example 11, 3-(2-Fluoro-3-((4-(2-isopropylthiazole-4-carbonyl)-1-oxa-4,9-diazaspiro[5.5]undecan-9-yl)methyl)phenethoxy)-N-(2-(2-(4-hydroxy-2-oxo-2,3-dihydrobenzo[d]thiazol-7-yl)ethylamino)ethyl)-N-(tetrahydro-2H-pyran-4-yl)propanamide ditrifluoroacetate] | 0.316 | 79.4 | 1.1 |
| CC(C)c1nc(C(=O)N2CCOC3(CCN(Cc4cccc(CCOCCC(=O)N(CCNCCc5ccc(O)c6c5OCC(=O)N6)[C@H](C)C(C)C)c4F)CC3)C2)cs1 [Example 12, R)-3-(2-Fluoro-3-((4-(2-isopropylthiazole-4-carbonyl)-1-oxa-4,9-diazaspiro[5.5]undecan-9-yl)methyl)phenethoxy)-N-(2-(2-(5-hydroxy-3-oxo-3,4-dihydro-2H-benzo[b][1,4]oxazin-8-yl)ethylamino)ethyl)-N-(3-methylbutan-2-yl)propanamide ditrifluoroacetate] | 0.501 | 39.8 | 1.0 |
| CC(C)c1nc(C(=O)N2CCOC3(CCN(Cc4cccc(CCOCCC(=O)N(C)CCNCCc5ccc(O)c6[nH]c(=O)sc56)c4F)CC3)C2)cs1 [Example 13, 3-(2-Fluoro-3-((4-(2-isopropylthiazole-4-carbonyl)-1-oxa-4,9-diazaspiro[5.5]undecan-9-yl)methyl)phenethoxy)-N-(2-(2-(4-hydroxy-2-oxo-2,3-dihydrobenzo[d]thiazol-7-yl)ethylamino)ethyl)-N-methylpropanamide ditrifluoroacetate] | 0.631 | 25.1 | 0.8 |

Further lines, results first:

| IC50 [1] [nM] | EC50 [2] [nM] | β2 Intrinsic Activity [2] | SMILES |
| --- | --- | --- | --- |
| 0.398 | 50.1 | 1.0 | CC(C)c1nc(C(=O)N2CCOC3(CCN(Cc4cccc(CCOCCC(=O)N(CCNCCc5ccc(O)c6c5OCC(=O)N6)[C@H](C)c5ccccc5)c4F)CC3)C2)cs1 [Example 14, (R)-3-(2-Fluoro-3-((4-(2-isopropylthiazole-4-carbonyl)-1-oxa-4,9-diazaspiro[5.5]undecan-9-yl)methyl)phenethoxy)-N-(2-(2-(5-hydroxy-3-oxo-3,4-dihydro-2H-benzo[b][1,4]oxazin-8-yl)ethylamino)ethyl)-N-(1-phenylethyl)propanamide ditrifluoroacetate] |
| 0.398 | 31.6 | 0.7 | CCN(CCNCCc1ccc(O)c2c1OCC(=O)N2)C(=O)CCOCCc1cccc(CN2CCC3(CC2)CN(C(=O)c2csc(C(C)C)n2)CCO3)c1F [Example 15, N-Ethyl-3-(2-fluoro-3-((4-(2-isopropylthiazole-4-carbonyl)-1-oxa-4,9-diazaspiro[5.5]undecan-9-yl)methyl)phenethoxy)-N-(2-(2-(5-hydroxy-3-oxo-3,4-dihydro-2H-benzo[b][1,4]oxazin-8-yl)ethylamino)ethyl)propanamide ditrifluoroacetate] |
| 0.251 | 200 | 0.8 | CC(C)c1nc(C(=O)N2CCOC3(CCN(Cc4cccc(CCOCCC(=O)N(CCNCCc5ccc(O)c6c5OCC(=O)N6)C(C)C)c4F)CC3)C2)cs1 [Example 16, 3-(2-Fluoro-3-((4-(2-isopropylthiazole-4-carbonyl)-1-oxa-4,9-diazaspiro[5.5]undecan-9-yl)methyl)phenethoxy)-N-(2-(2-(5-hydroxy-3-oxo-3,4-dihydro-2H-benzo[b][1,4]oxazin-8-yl)ethylamino)ethyl)-N-isopropylpropanamide ditrifluoroacetate] |
| 0.316 | 50.1 | 1.0 | CC(C)c1nc(C(=O)N2CCOC3(CCN(Cc4cccc(CCOCCC(=O)N(CCNCCc5ccc(O)c6c5OCC(=O)N6)CCC(C)(C)C)c4F)CC3)C2)cs1 [Example 17, N-(3,3-Dimethylbutyl)-3-(2-fluoro-3-((4-(2-isopropylthiazole-4-carbonyl)-1-oxa-4,9-diazaspiro[5.5]undecan-9-yl)methyl)phenethoxy)-N-(2-(2-(5-hydroxy-3-oxo-3,4-dihydro-2H-benzo[b][1,4]oxazin-8-yl)ethylamino)ethyl)propanamide ditrifluoroacetate] |
| 0.398 | 20 | 1.0 | CCCC[C@@H](C)N(CCNCCc1ccc(O)c2c1OCC(=O)N2)C(=O)CCOCCc1cccc(CN2CCC3(CC2)CN(C(=O)c2csc(C(C)C)n2)CCO3)c1F [Example 18, (R)-3-(2-Fluoro-3-((4-(2-isopropylthiazole-4-carbonyl)-1-oxa-4,9-diazaspiro[5.5]undecan-9-yl)methyl)phenethoxy)-N-(hexan-2-yl)-N-(2-(2-(5-hydroxy-3-oxo-3,4-dihydro-2H-benzo[b][1,4]oxazin-8-yl)ethylamino)ethyl)propanamide ditrifluoroacetate] |
